Type in all cases: cell-based, human
The test system of assay [1] is p-ERK in NCI-H441 cells (KRAS G12V mutation). The experiment in a line: Cell p-ERK assay (HTRF) in NCI-H441 cells. The procedure, abridged: (§1)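 AsPC-1 (10000/well) or NCI-H441 (20000/well) cells were seeded in RPMI-1640 with 10% FBS, grown overnight, then exposed to 3.16-fold compound dilutions (0.1% DMSO) for 3 h at 37 °C. Lysates were read for phospho-ERK T202/Y204 by HTRF; IC50 came from four-parameter fits of inhibition versus DMSO and blank wells.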
(In general: Time-resolved FRET reads energy transfer from a long-lived donor to a nearby acceptor.)

Assay [2] has as its system p-ERK in AsPC-1 cells (KRAS G12D mutation). The assay can be described thus: Cell p-ERK assay (HTRF) in AsPC-1 cells. The procedure, abridged: as §1
Assay [3] deals with AsPC-1 cells (KRAS G12D mutation). The assay can be described thus: 3D cell proliferation assay (CellTiter Glo-3D), AsPC-1. As to conditions: medium with 2% FBS, read-out: AsPC-1 AP IC50. A digest of the protocol: (§2)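 NCI-H441 ([…] lung) and AsPC-1 (KRAS G12D pancreatic) cells, 800 per well, were seeded in RPMI-1640 with 2% FBS and dosed next day with 3.16-fold compound dilutions (0.1% DMSO). After 5 days at 37 °C, CellTiter-Glo 3D luminescence gave inhibition versus DMSO and blank; IC50 from four-parameter fit.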
For orientation: ATP-based viability assays read luminescence as a measure of living cells.

Assay [4] relates to NCI-H441 cells. The experiment in a line: 3D cell proliferation assay (CellTiter Glo-3D), NCI-H441. The note with it: medium with 2% FBS, read-out: H441 AP IC50. The procedure, abridged:
as §2

[5] abbreviates: NCI-H441 cells, 3 h compound incubation, HTRF p-ERK T202/Y204, read-out: H441 p-ERK IC50.
Setting [6] is: AsPC-1 cells, 3 h compound incubation, HTRF p-ERK T202/Y204, read-out: AsPC-1 p-ERK IC50.
The mark [7] stands for this setting: 3D cell proliferation (CellTiter Glo-3D).
Setting [8] is: Homo sapiens, NCI-H441, 3 h, NCI-H441 cells, 3 h compound incubation, HTRF p-ERK T202/Y204, read-out: H441 p-ERK IC50.
[9] abbreviates: Homo sapiens, ASPC1, 3 h, AsPC-1 cells, 3 h compound incubation, HTRF p-ERK T202/Y204, read-out: AsPC-1 p-ERK IC50.
[10] abbreviates: Homo sapiens, ASPC1, 3D cell proliferation (CellTiter Glo-3D).
Setting [11] is: Homo sapiens, NCI-H441, 3D cell proliferation (CellTiter Glo-3D).

Experimental findings from patent US20260234165A1, “MACROCYCLIC COMPOUNDS, PREPARATION METHOD THEREFOR, AND USE THEREOF” (GENFLEET THERAPEUTICS (SHANGHAI) INC., priority 2004, published 2026) are described below.

The IC50 is the midpoint of a concentration-inhibition curve.

Where a name gives a salt, the structure may show the parent alone. Read-outs that look alike come from different tables or passages of the source.

Regarding `CCn1c(-c2cc(OCC3(N4CCCOCC4)CC3)cnc2[C@H](C)OC)c2c3cc(ccc31)-c1csc(n1)C[C@H](NC(=O)[C@H]1[C@H](C)[C@@H]1C)C(=O)N1CCC[C@H](N1)C(=O)OCC1(CC1)C2` (atropisomer, axis not shown; (Ra)) [Compound Z464, (1r,2R,3,S)—N-((3′S,4′S,Z)—(Ra)-2′-(5-((1-(1,4-oxazepan-4-yl)cyclopropyl)methoxy)-2-((S)-1-methoxyethyl)pyridin-3-yl)-1′-ethyl-5′,7′-dioxospiro[cyclopropane-1,10′-8-oxa-2(4,2)-thiazola-1(5,3)-indola-6(1,3)-pyridazinacycloundecaphan]-4′-yl)-2,3-dimethylcyclopropane-1-carboxamide], the IC50 is 1.9 nM in assay [1] (setting [5]), 3.03 nM in assay [2] (setting [6]), 15 nM in assay [3] (setting [7]) and 6.32 nM in assay [4] (setting [7]).
`CCn1c(-c2cc(OCC34CCCN3CCC4)cnc2[C@H](C)OC)c2c3cc(ccc31)-c1csc(n1)C[C@H](NC(=O)[C@H]1[C@H](C)[C@@H]1C)C(=O)N1CCC[C@H](N1)C(=O)OCC1(CC1)C2` (single isomer, unassigned) [Compound Z339]: the IC50 was 5.48 nM in assay [1] (setting [8]), 10.8 nM in assay [2] (setting [9]), 18.3 nM in assay [3] (setting [10]) and 7.33 nM in assay [4] (setting [11]).
With `CCn1c(-c2cc(OCCN3CCOC4(CC4)C3)cnc2[C@H](C)OC)c2c3cc(ccc31)-c1csc(n1)C[C@H](NC(=O)[C@H]1[C@H](C)[C@@H]1C)C(=O)N1CCC[C@H](N1)C(=O)OCC(C)(C)C2` [Compound Z83, (1r,2R,3S)—N-((6^3R,4R,Z)-1^2-(5-(2-(4-oxa-7-azaspiro[2,5]octan-7-yl)ethoxy)-2-((S)-1-methoxyethyl)pyridin-3-yl)-1′-ethyl-10,10-dimethyl-5,7-dioxo-6^1,6^2,6^3,6^4,6^5,6^6-hexahydro-1^1H-8-oxa-2(4,2)-thiazola-1(5,3)-indola-6(1,3)-pyridazinacycloundecaphane-4-yl)-2,3-dimethylcyclopropane-1-carboxamide], the IC50 in assay [1] (setting [5]) was 0.75 nM; in assay [2] (setting [6]), 0.43 nM; in assay [3] (setting [7]), 0.77 nM; in assay [4] (setting [7]), 0.48 nM.
Take `CCn1c(-c2cc(C#CCN3CCC(O)(c4cccc[n+]4[O-])CC3)cnc2[C@H](C)OC)c2c3cc(ccc31)-c1csc(n1)C[C@H](NC(=O)[C@H]1[C@H](C)[C@@H]1C)C(=O)N1CCC[C@H](N1)C(=O)OCC(C)(C)C2` (atropisomer, axis not shown; (Ra)) [Compound Z1047, 2-(1-(3-(5-((6^3S,4S,Z)-4-((1r,2R,3S)-2,3-dimethylcyclopropane-1-carboxamido)-1^1-ethyl-10,10-dimethyl-5,7-dioxo-6^1,6^2,6^3,6^4,6^5,6^6-hexahydro-1^1H-8-oxa-2(4,2)-thiazola-1(5,3)-indola-6(1,3)-pyridazinacycloundecaphane-1^2-yl)-(Ra)-6-((S)-1-methoxyethyl)pyridin-3-yl)prop-2-yn-1-yl)-4-hydroxypiperidin-4-yl)pyridine-1-oxide formate]: the IC50 was found to be 0.22 nM in assay [1] (Homo sapiens, NCI-H441, 3 h, read-out: H441 p-ERK IC50(nM)); 0.24 nM in assay [2] (Homo sapiens, ASPC1, 3 h, read-out: AsPC-1 p-ERK IC50(nM)); 0.37 nM in assay [3] (setting [10]); 0.24 nM in assay [4] (Homo sapiens, 3D cell proliferation (CellTiter Glo-3D)).
Take `CO[C@@H](C)c1ncc(OCCN2CCOC3(CC3)C2)cc1-c1c2c3cc(ccc3n1CC(F)(F)F)-c1csc(n1)C[C@H](NC(=O)[C@H]1[C@H](C)[C@@H]1C)C(=O)N1CCC[C@H](N1)C(=O)OCC1(CC1)C2` (atropisomer, axis not shown; (Ra)) [Compound Z380, (1r,2R,3S)—N-((3′S,4′S,Z)—(Ra)-2′-(5-(2-(4-oxa-7-azaspiro[2,5]octan-7-yl)ethoxy)-2-((S)-1-methoxyethyl)pyridin-3-yl)-5′,7′-dioxo-1′-(2,2,2-trifluoroethyl)spiro[cyclopropane-1,10′-8-oxa-2(4,2)-thiazola-1(5,3)-indola-6(1,3)-pyridazinacycloundecaphan]-4-yl)-2,3-dimethylcyclopropane-1-carboxamide]: the IC50 in assay [1] (setting [5]) worked out at 3.67 nM; in assay [2] (setting [6]), 9.45 nM; in assay [3] (setting [7]), 6.28 nM; in assay [4] (setting [7]) it was 4.75 nM.
On the same counts, the results for `CCn1c(-c2cc(OCCN3CCS(=O)(=O)CC3)cnc2[C@H](C)OC)c2c3cc(ccc31)-c1csc(n1)C[C@H](NC(=O)[C@H]1C[C@@H]1C)C(=O)N1CCC[C@H](N1)C(=O)OCC(C)(C)C2` (atropisomer, axis not shown; (Ra)) [Compound Z605] are 0.3 nM, 0.6 nM, 0.5 nM and 0.26 nM.
Consider `CCn1c(-c2cc(N3CCC(N4CCS(=O)(=O)CC4)CC3)cnc2[C@H](C)OC)c2c3cc(ccc31)-c1csc(n1)C[C@H](NC(=O)[C@H]1[C@H](C)[C@@H]1C)C(=O)N1CCC[C@H](N1)C(=O)OCC(C)(C)C2` (atropisomer, axis not shown; (Ra)) [Compound Z855, (1r,2R,3S)—N-((6S,4S,Z)—(Ra)-1^2-(5-(4-(1,1-dioxidothiomorpholino)piperidin-1-yl)-2-((S)-1-methoxyethyl)pyridin-3-yl)-1^1-ethyl-10,10-dimethyl-5,7-dioxo-6^1,6^2,6^3,6^4,6^5,6^6-hexahydro-1^1H-8-oxa-2(4,2)-thiazola-1(5,3)-indola-6(1,3)-pyridazinacycloundecaphane-4-yl)-2,3-dimethylcyclopropane-1-carboxamide], for which the IC50 turned out to be 0.17 nM in assay [1] (setting [8]), 0.29 nM in assay [2] (setting [9]), 0.22 nM in assay [3] (setting [10]) and 0.16 nM in assay [4] (setting [11]).
The corresponding values for `CCn1c(-c2cc(OCC3(N4CCS(=O)(=O)CC4)CC3)cnc2[C@H](C)OC)c2c3cc(ccc31)-c1csc(n1)C[C@H](NC(=O)[C@H]1[C@H](C)[C@@H]1C)C(=O)N1CCC[C@H](N1)C(=O)OCC(C)(C)C2` (atropisomer, axis not shown; (Ra)) [Compound Z614, (1r,2R,3S)—N-((6^3S,4S,Z)-1^2-(5-((1-(1,1-dioxidothiomorpholino)cyclopropyl)methoxy)-2-((S)-1-methoxyethyl)pyridin-3-yl)-1^1-ethyl-(Ra)-10,10-dimethyl-5,7-dioxo-6^1,6^2,6^3,6^4,6^5,6^6-hexahydro-1^1hydrogen-8-oxa-2(4,2)-thiazola-1(5,3)-indola-6(1,3)-pyridazinacycloundecaphane-4-yl)-2,3-dimethylcyclopropane-1-carboxamide] are 0.23 nM, 0.09 nM, 0.11 nM and 0.15 nM.
The corresponding values for `CO[C@@H](C)c1ncc(OCCN2CCS(=O)(=O)CC2)cc1-c1c2c3cc(ccc3n1CC(F)(F)F)-c1csc(n1)C[C@H](NC(=O)[C@H]1C[C@@H]1C)C(=O)N1CCC[C@H](N1)C(=O)OCC(C)(C)C2` (atropisomer, axis not shown; (Ra)) [Compound Z677, (1S,2S)—N-((6^3S,4S,Z)—(Ra)-1^2-(5-(2-(1,1-dioxidothiomorpholino)ethoxy)-2-((S)-1-methoxyethyl)pyridin-3-yl)-10,10-dimethyl-5,7-dioxo-1^1-(2,2,2-trifluoroethyl)-6^1,6^2,6^3,6^4,6^5,6^6-hexahydro-1^1H-8-oxa-2(4,2)-thiazola-1(5,3)-indola-6(1,3)-pyridazinacycloundecaphane-4-yl)-2-methylcyclopropane-1-carboxamide] are 0.29 nM, 0.35 nM, 0.53 nM and 0.2 nM.
On the same counts, the results for `CCn1c(-c2cc(OCCN3CCN(C)S(=O)(=O)CC3)cnc2[C@H](C)OC)c2c3cc(ccc31)-c1csc(n1)C[C@H](NC(=O)[C@H]1[C@H](C)[C@@H]1C)C(=O)N1CCC[C@H](N1)C(=O)OCC(C)(C)C2` (atropisomer, axis not shown; (Ra)) [Compound Z796] are 0.55 nM, 0.42 nM, 1.1 nM and 0.28 nM.
Regarding `CCn1c(-c2cc(C#CC(C)N3CCC3)cnc2[C@H](C)OC)c2c3cc(ccc31)-c1csc(n1)C[C@H](NC(=O)[C@H]1[C@H](C)[C@@H]1C)C(=O)N1CCC[C@H](N1)C(=O)OCC(C)(C)C2` (atropisomer, axis not shown; (Sa)) [Compound Z613-2, (1r,2R,3S)—N-((6^3S,4S,Z)-12-(5-(3-(azetidin-1-yl)but-1-yn-1-yl)-(Sa)-2-((S)-1-methoxyethyl)pyridin-3-yl)-4′-ethyl-10,10-dimethyl-5,7-dioxo-6^1,6^2,6^3,6^4,6^5,6^6-hexahydro-1^1H-8-oxa-2(4,2)-thiazola-(5,3)-indola-6(1,3)-pyridazinacycloundecaphane-4-yl)-2.3-dimethylcyclopropane-1-carboxamide], the IC50 turned out to be 0.34 nM in assay [1] (setting [8]), 0.68 nM in assay [2] (setting [9]), 0.79 nM in assay [3] (setting [10]) and 0.7 nM in assay [4] (setting [11]).
